The record followed here is publication PMC11582173, “Synthesis, cytotoxicity, anti-inflammatory, anti-metastatic and anti-oxidant activities of novel chalcones incorporating 2-phenoxy-N-arylacetamide and thiophene moieties: induction of apoptosis in MCF7 and HEP2 cells” (Naunyn-Schmiedeberg's Archives of Pharmacology, 2024).

The subject of this assay is Caspase 9. Kind of assay: ELISA, Caspase 9 concentration. The class given is cell-based, human. On the procedure: The concentrations of matrix metalloproteinase-2 (MMP2), matrix metalloproteinase-9 (MMP9), Bcl2, BAX, P53, Malondialdehyde (MDA), Glutathione (GSH), caspase 8, caspase 9 and IL-6 were measured quantitatively in 5c treated MCF7 and HEP2 cells using ELISA (Enzyme-Linked Immunosorbent Assay) (Table 4). Gelatinases are a collective word for MMP-2 and MMP-9, where MMP-2 is gelatinase-A and MMP-9 is gelatinase-B. Solid tumor invasion, metastasis, and angiogenesis have long been linked to gelatinases (Das et al. [2021]). […] Bcl2 is a crucial protein that targets apoptosis inhibition. It is regarded as a predictive biomarker or therapeutic target in the diagnosis of cancer due to its broad expression in a variety of cancers (Porter et al. [2009]). […] The pro-apoptotic protein BAX permeabilizes the mitochondrial outer membrane by changing from a cytosolic monomer to a hazardous oligomer triggering the apoptosis process (Fulda and Debatin [2006]). […] P53 transcription factor performs an essential tumor suppressor role by coordinating a wide range of physiological responses, including DNA repair, cell cycle arrest, cellular senescence, cell death, cell differentiation, and metabolism (Liebl and Hofmann [2021]). It was activated in MCF7 and HEP2-treated cells with values (4.28 and 3.109 ng/mL), respectively, compared to their controls (3.44 and 2.06 ng/mL). […]

Molecules are shown by their SMILES. “And” between values parts separate entries of the source, which are not always exact repeats. Equal values may be shown once.

`COc1ccc(NC(=O)COc2ccc(C=CC(=O)c3cccs3)cc2)cc1` [Compound 5c, N-(4-Methoxyphenyl)-2-(4-(3-oxo-3-(thiophen-2-yl)prop-1-en-1-yl)phenoxy)acetamide]: the Caspase9 concentration was 27.54 ng/mL and 27.54 ± 0.68 ng/mL (5c treated HEP2 cells, untreated 3.70±0.18); 28.03 ng/mL and 28.03 ± 0.49 ng/mL (5c treated MCF7 cells, untreated 3.66±0.49).
